Biological target: Cannabinoid receptor 2 (Homo sapiens, UniProt P34972)
Test: Inverse agonist activity at human CB2 receptor expressed in HEK293 cells assessed as forskolin-stimulated cAMP accumulation after 30 mins by HTRF assay

Chain of Cannabinoid receptor 2 (P34972 whole entry): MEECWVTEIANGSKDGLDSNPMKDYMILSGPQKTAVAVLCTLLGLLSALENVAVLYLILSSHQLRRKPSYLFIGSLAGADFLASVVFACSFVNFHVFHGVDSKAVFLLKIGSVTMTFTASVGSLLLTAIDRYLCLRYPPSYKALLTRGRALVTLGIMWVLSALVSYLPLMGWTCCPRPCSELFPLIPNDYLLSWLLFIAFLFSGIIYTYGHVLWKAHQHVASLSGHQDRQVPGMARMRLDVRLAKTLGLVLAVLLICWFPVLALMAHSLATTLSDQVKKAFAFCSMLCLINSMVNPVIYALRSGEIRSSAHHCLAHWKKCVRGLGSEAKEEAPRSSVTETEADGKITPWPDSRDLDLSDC

EC50: > 10 µM
SMILES: Nc1nc(NC2CCN(S(=O)(=O)C(F)(F)F)CC2)c2cc(C(c3ccc(Cl)cc3)c3ccc(Cl)cc3)ccc2n1 [US9682955, 107]

Reference: BindingDB's records for doi:10.1021/acsmedchemlett.0c00495 (Janssen Research & Development, 2020)
